# Results taken from patent US7728005B2, “Ether derivative” (Ajinomoto Co., Inc., priority 2003, dated 2010).
# Key:
# Male ICR mice = assay: Mustard oil-induced thermal hyperalgesia model method (hot plate test); format: in vivo; conditions: 1.0 mg/kg oral, 1 hr before hot plate test; ICR mouse
# Experimental: Male ICR mice (5 to 7-week-old) were used. Mustard oil 10% (diluted with distilled water) was subcutaneously injected into both hind paws, and a hot plate test was performed 30 min […] later. The animal was placed on a hot plate and the latency for nociceptive behavior was measured and used as an index. The compound was suspended in 0.5% CMC and orally administered at a dose of 5 ml/kg at 1 hr before the hot plate test. The inhibitory rate was calculated relative to the index measured before administration as 100%.
# male ICR mouse = assay: Acetic acid-induced writhing method; format: in vivo
# Experimental: The effect of the test compound in the writhing test method induced by acetic acid was examined using male ICR mouse (4-week-old). For intraperitoneal administration of the test compound, the test compound was dissolved in saline containing 5% DMSO and 5% Tween 80 to a suitable concentration, and administered at a dose of 5 ml/kg at 30 min before acetic acid administration. For oral administration of the test compound, the test compound was suspended in 0.5% CMC and administered at a dose of 5 ml/kg at 1 hr before acetic acid administration. Acetic acid was diluted with saline to 0.9%, intraperitoneally administered at a dose of 5 ml/kg and, starting 5 min thereafter, the number of writhing responses was counted for 15 min. Saline containing 5% DMSO and 5% Tween 80 was also intraperitoneally administered to the control group (vehicle administration group). As the standard product, indomethacin was used, which was suspended in 0.5% tragacanth gum and orally administered at 90 min before acetic acid administration. 0.5% Tragacanth gum was administered to the control group.
# The number of writhing responses by each test compound is shown in FIG. 1 and the number of writhing responses by indomethacin is shown in FIG. 2.
compound,measurement,setting,value
"C[C@@H](COc1cccc(Cl)c1)NC(=O)Nc1cccc2cnccc12 [Example 38, N-[(1S)-2-(3-chlorophenoxy)-1-methylethyl]-N′-(isoquinolin-5-yl)urea]",inhibition rate (latency for nociceptive behavior),Male ICR mice,57%
"O=C(NCCOc1ccc(F)cc1)Nc1ccccc1Br [Example 1, N-(2-bromophenyl)-N′-[2-(4-fluorophenoxy)ethyl]urea]",inhibitory rate (number of writhing responses),"male ICR mouse; 10 mg/kg intraperitoneal, 30 min before acetic acid",76%
"COc1ccc2c(c1)c(CC(=O)O)c(C)n2C(=O)c1ccc(Cl)cc1 [indomethacin, reference compound]",inhibitory rate (number of writhing responses),"male ICR mouse; 30 mg/kg oral, 90 min before acetic acid",56%
